Test results reported in publication PMC8267677, “Inhibitory Mechanisms of Lusianthridin on Human Platelet Aggregation” (International Journal of Molecular Sciences, 2021).

Tests used:
cyclooxygenase-2 (COX-2) = target: T1, cyclooxygenase-2 (COX-2) (Homo sapiens, UniProt P35354); test: COX fluorescent inhibitor screening assay kit (Cayman), ADHP/resorufin readout; format: biochemical
T1 construct: gene PTGS2
T1 sequence (P35354 18-604): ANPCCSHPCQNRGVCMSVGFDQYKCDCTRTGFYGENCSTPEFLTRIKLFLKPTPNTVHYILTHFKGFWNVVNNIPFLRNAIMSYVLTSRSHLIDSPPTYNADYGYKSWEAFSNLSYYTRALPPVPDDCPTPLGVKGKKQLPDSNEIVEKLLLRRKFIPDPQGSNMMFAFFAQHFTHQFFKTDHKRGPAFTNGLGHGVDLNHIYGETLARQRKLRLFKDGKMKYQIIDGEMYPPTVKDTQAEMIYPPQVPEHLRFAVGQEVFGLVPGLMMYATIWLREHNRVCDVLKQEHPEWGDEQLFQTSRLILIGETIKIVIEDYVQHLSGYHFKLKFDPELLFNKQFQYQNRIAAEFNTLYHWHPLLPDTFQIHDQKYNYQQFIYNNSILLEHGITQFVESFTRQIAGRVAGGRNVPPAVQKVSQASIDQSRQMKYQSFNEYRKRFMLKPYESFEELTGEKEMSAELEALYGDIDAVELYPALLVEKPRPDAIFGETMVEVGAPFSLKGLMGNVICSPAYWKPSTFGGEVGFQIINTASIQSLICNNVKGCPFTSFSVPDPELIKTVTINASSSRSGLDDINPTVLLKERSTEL

cyclooxygenase-1 (COX-1) = target: T2, cyclooxygenase-1 (COX-1) (Ovis aries, UniProt P05979); test: as above; format: biochemical
T2 construct: gene PTGS1
T2 sequence (P05979 25-600): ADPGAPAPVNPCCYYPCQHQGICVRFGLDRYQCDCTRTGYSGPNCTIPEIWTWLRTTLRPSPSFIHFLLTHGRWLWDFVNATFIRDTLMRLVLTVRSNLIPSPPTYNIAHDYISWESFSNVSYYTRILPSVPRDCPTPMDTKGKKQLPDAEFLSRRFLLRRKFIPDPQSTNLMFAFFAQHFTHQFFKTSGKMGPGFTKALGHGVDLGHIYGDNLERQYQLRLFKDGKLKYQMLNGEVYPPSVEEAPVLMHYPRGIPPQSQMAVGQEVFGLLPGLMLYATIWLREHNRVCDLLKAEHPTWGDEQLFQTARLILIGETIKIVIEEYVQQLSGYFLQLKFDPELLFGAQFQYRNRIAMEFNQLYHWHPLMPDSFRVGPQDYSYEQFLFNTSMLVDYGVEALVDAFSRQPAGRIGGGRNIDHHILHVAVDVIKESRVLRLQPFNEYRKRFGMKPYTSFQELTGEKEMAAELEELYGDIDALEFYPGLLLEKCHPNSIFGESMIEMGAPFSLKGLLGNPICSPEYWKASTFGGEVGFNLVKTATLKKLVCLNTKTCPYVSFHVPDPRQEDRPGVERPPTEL

IC50 (cyclooxygenase-2 (COX-2)): 0.17 µM
IC50 (cyclooxygenase-1 (COX-1)): 10.8 ± 1.12 µM
Compound: COc1cc(O)c2c(c1)CCc1cc(O)ccc1-2 [lusianthridin]
